According to a melting point compilation (Tetko et al.):

Row | Compound | melting point [°C]
1 | CC(C)(O)CON1C(C)(C)CC(CCCCNc2nc(NCCCCC3CC(C)(C)N(OCC(C)(C)O)C(C)(C)C3)nc(NCCCCC3CC(C)(C)N(OCC(C)(C)O)C(C)(C)C3)n2)CC1(C)C | 172 to 176
2 | Cc1cc(F)c(-n2nc(C(F)(F)F)nc2NC(=O)C(F)(F)F)cc1C(SC(c1cc(-n2nc(C(F)(F)F)nc2NC(=O)C(F)(F)F)c(F)cc1C)C(F)(F)F)C(F)(F)F (stereo not given) | 122 to 125
3 | CC(C)(C)c1cc(-c2nnc(NC(=N)N)o2)cc(C(C)(C)C)c1O | 223 to 224
4 | CC=C(C)C(=O)NC(c1ccccc1)C(O)C(=O)OC1CC2(O)C(OC(=O)c3ccccc3)C3C4(OC(C)=O)COC4CC(O)C3(C)C(=O)C(OC(C)=O)C(=C1C)C2(C)C (stereo not given) | 184 to 186
5 | CCCCCCCCCS(=O)(=O)c1c(S(=O)(=O)CCCCCCCCC)c(S(=O)(=O)CCCCCCCCC)c(S(=O)(=O)CCCCCCCCC)c(S(=O)(=O)CCCCCCCCC)c1S(=O)(=O)CCCCCCCCC | 95
6 | CCC(C)(C)c1ccc(OCC(=O)Nc2cccc(C(=O)Nc3[nH]n(-c4c(Cl)cc(Cl)cc4Cl)c(=O)c3-n3nnn(-c4ccccc4)c3=S)c2)c(C(C)(C)CC)c1 | 169 to 171
7 | CCCCCCCCCCCCCCCC(=O)OC(CCCCCCCCCCCCCC)C(=O)N[C@H](C(=O)N[C@@H](CCC(=O)OCc1ccccc1)C(=O)OCc1ccccc1)C(C)C (stereo not given in full) | 65
8 | Cc1ccc2cccc(OCc3c(Cl)ccc(S(=O)(=O)N4CCC[C@H]4C(=O)NC4CCN(C(=O)CN(C=NC(=O)OC(C)(C)C)NC(=O)OC(C)(C)C)CC4)c3Cl)c2n1 | 123
9 | N=S(=O)(C=Cc1ccccc1N)c1ccccc1 (stereo not given) | 95 to 96
10 | CCCCC(CC)COc1cc2c3cc(OCC(CC)CCCC)c(OCC(CC)CCCC)cc3c3c(OC)ccc(OC)c3c2cc1OCC(CC)CCCC (stereo not given) | 54 to 56
11 | CCCCCCCCCCS(=O)(=O)c1c(S(=O)(=O)CCCCCCCCCC)c(S(=O)(=O)CCCCCCCCCC)c(S(=O)(=O)CCCCCCCCCC)c(S(=O)(=O)CCCCCCCCCC)c1S(=O)(=O)CCCCCCCCCC | 76
12 | CC(C)(C)c1cc(SC(Sc2cc(C(C)(C)C)c(O)c(C(C)(C)C)c2)C(Sc2cc(C(C)(C)C)c(O)c(C(C)(C)C)c2)Sc2cc(C(C)(C)C)c(O)c(C(C)(C)C)c2)cc(C(C)(C)C)c1O | 221 to 223
13 | FC(F)(F)C(F)(F)C(F)(F)C(F)(F)C(F)(F)C(F)(F)CCc1ccc(P(c2ccccc2)c2ccc(CCC(F)(F)C(F)(F)C(F)(F)C(F)(F)C(F)(F)C(F)(F)F)cc2)cc1 | 42.1 to 43.1
14 | C=CCNc1nc(NC(C)(C)CC(C)(C)C)nc(N(CCCCCCN(c2nc(NCC=C)nc(NC(C)(C)CC(C)(C)C)n2)C2CC(C)(C)NC(C)(C)C2)C2CC(C)(C)NC(C)(C)C2)n1 | 160 to 162
15 | COc1cccc2c1CC[C@@H](C(=O)O)C2 | 150 to 152
16 | NS(=O)(=O)c1ccc(-c2c(-c3ccccc3)noc2CO[N+](=O)[O-])cc1 | 47 to 50
17 | CCCCCCCCCCCCCCCCCCN(CCCCCCCCCCCCCCCCCC)CCCN(CCOC(=O)Nc1ccccc1)CCOC(=O)Nc1ccccc1 | 54 to 56
18 | CC1N=C(c2ccccc2)c2cc(Cl)ccc2-n2c1nnc2C(CN(C)C)c1ccccc1 (stereo not given) | 200 to 203
19 | COc1cc(OC)c(/C=C/C(c2ccc(OC)c(OC)c2OC)S(=O)(=O)C(/C=C/c2c(OC)cc(OC)cc2OC)c2ccc(OC)c(OC)c2OC)c(OC)c1 (stereo not given) | 94 to 96
20 | [C-]#[N+]C(C)C(=O)N(c1ccccc1)C(C)C (stereo not given) | 47 to 50

Row | Compound | melting point [°C]
21 | COC(=O)CCc1ccc(N(c2ccc(-c3ccc(N(c4ccc(CCC(=O)OC)cc4)c4cccc5c4Cc4ccccc4-5)cc3)cc2)c2cccc3c2Cc2ccccc2-3)cc1 | 127 to 129
22 | CCC(C=CC(C)C1CCC2C3CC=C4CC(OC(=O)N(CC(O)COC(c5ccccc5)(c5ccccc5)c5ccccc5)C(C)C)CCC4(C)C3CCC12C)C(C)C (stereo not given) | 75 to 76
23 | ON=C(Cl)c1ccc(Cl)cc1 | 87.5
24 | O=C(O)CCC(CC=Cc1ccc(Cl)cc1)(C(=O)C=Cc1ccc(Cl)cc1)c1ccccc1 (stereo not given) | 178 to 180
25 | N=C(NC(=O)OCc1ccccc1)N(CCCC(NC(=O)C(Cc1ccccc1)NC(=O)OCc1ccccc1)C(=O)Oc1cccc2ccccc12)C(=O)OCc1ccccc1 (stereo not given) | 125 to 130
26 | COc1c(Cl)nc(-c2ccc(Cl)c(OC)c2F)nc1Cl | 137 to 138
27 | CC(=O)Oc1c(C)cc(Oc2ccc3nc(COc4ccc(CC5SC(=O)N(C(c6ccccc6)(c6ccccc6)c6ccccc6)C5=O)cc4)n(C)c3n2)c(C)c1C (stereo not given) | 190 to 191
28 | FC(F)(F)C(F)(F)C(F)(F)C(F)(F)C(F)(F)C(F)(F)C(F)(F)C(F)(F)CCCCCCC1(CCCCCCC(F)(F)C(F)(F)C(F)(F)C(F)(F)C(F)(F)C(F)(F)C(F)(F)C(F)(F)F)c2cc(Br)ccc2-c2ccc(Br)cc21 | 82 to 83
29 | N=S(=O)(c1ccccc1)c1cccs1 (stereo not given) | 133
30 | CCc1cn(C2OC(CNC(=O)C(C)Oc3cc(OC)c(Br)cc3Br)C(OC(=O)C(NC(=O)OC(C)(C)C)C(C)C)C2F)c(=O)[nH]c1=O (stereo not given) | 101 to 111
31 | CCCCCCCCOc1ncc(-c2ccc(C(OC(c3ccc(-c4cnc(OCCCCCCCC)nc4)cc3)C3COC4(CCCCC4)O3)C3COC4(CCCCC4)O3)cc2)cn1 (stereo not given) | 93.4
32 | CC(C)[C@H](NC(=O)N(C)CCc1ccccn1)C(=O)N[C@@H](Cc1ccccc1)[C@H](O)[C@@H](O)[C@H](Cc1ccccc1)NC(=O)[C@@H](NC(=O)N(C)CCc1ccccn1)C(C)C | 109 to 111
33 | COc1ccc([N+](=O)[O-])cc1C(/C=C/c1ccc(I)cc1)S(=O)(=O)C(/C=C/c1ccc(I)cc1)c1cc([N+](=O)[O-])ccc1OC (stereo not given) | 218 to 221
34 | CS(=O)(=O)c1ccc(C(Cc2ccccc2Cl)C(=O)Nc2nc3ccccc3o2)cc1 (stereo not given) | 107 to 108
35 | CC(=O)OCC1OC(NC(=O)C2=CC=C(Cl)C(N)([N+](=O)[O-])C2)C(OC(C)=O)C(OC(C)=O)C1OC1OC(COC(C)=O)C(OC(C)=O)C(OC(C)=O)C1OC(C)=O (stereo not given) | 115 to 119
36 | C=CCN(CC=C)c1nc(NC(C)(C)CC(C)(C)C)nc(N(CCCCCCN(c2nc(NC(C)(C)CC(C)(C)C)nc(N(CC=C)CC=C)n2)C2CC(C)(C)NC(C)(C)C2)C2CC(C)(C)NC(C)(C)C2)n1 | 113 to 115
37 | [C-]#[N+]C1(C)CN(C(=O)Nc2ccc(C(F)(F)F)cc2)N=C1c1ccc(Cl)cc1 (stereo not given) | 171 to 173
38 | O=C1OC(=O)c2ccc3c4c(ccc1c24)C(=O)OC3=O | 300
39 | CC(C)(C1CCC(OCC(CN2C(C)(C)CC3(CC2(C)C)OCCO3)OC(=O)c2ccccc2)CC1)C1CCC(OCC(CN2C(C)(C)CC3(CC2(C)C)OCCO3)OC(=O)c2ccccc2)CC1 (stereo not given) | 77 to 79
40 | CCCCCCC1(CCCCCC)c2cc(-c3ccc4c(c3)nc(N)c3nc(COCC)n(CC(C)(C)O)c34)ccc2-c2ccc(-c3ccc4c(c3)nc(N)c3nc(COCC)n(CC(C)(C)O)c34)cc21 | 261 to 265

Row | Compound | melting point [°C]
41 | Nc1cc(C(F)(F)C(F)(F)OC(F)(F)C(F)(F)OC(F)(F)C(F)(F)OC(F)(F)C(F)(F)C(F)(F)C(F)(F)C(F)(F)OC(F)(F)C(F)(F)c2ccc(O)c(N)c2)ccc1O | 92 to 95
42 | CC(C)(Cc1ccc(S(=O)(=O)CCc2c(CCNS(=O)(=O)Cc3ccc(Cl)c(Cl)c3)n(C(c3ccccc3)c3ccccc3)c3ccc(Cl)cc23)cc1)C(=O)O | 207 to 208
43 | CCCCCCC=CC(OC(=O)c1ccccc1)C(COC1OC(COCC(=O)O)C(OCC(=O)O)C(OC(=O)c2ccccc2)C1OC(=O)c1ccccc1)NC(=O)CCCCCCCCC(=O)OC (stereo not given) | 124 to 125
44 | NC(=O)c1c(I)c(C(=O)N(CC(O)CO)CC(O)CO)c(I)c(N(CC(O)CO)C(=O)CO)c1I (stereo not given) | 195 to 200
45 | CC(C)(C)OC(=O)CC[C@H](NC(=O)CNC(=O)[C@H](CSC(c1ccccc1)(c1ccccc1)c1ccccc1)NC(c1ccccc1)(c1ccccc1)c1ccccc1)C(=O)OC(C)(C)C | 98 to 110
46 | COc1ccc(N2C(=O)C3Cc4[nH]cnc4CN3C2=O)cc1 (stereo not given) | 142 to 148
47 | Nc1cc(C(F)(F)C(F)(F)OC(F)(F)C(F)(OC(F)(F)C(F)(F)OC(F)(C(F)(F)F)C(F)(F)OC(F)(F)C(F)(F)c2ccc(O)c(N)c2)C(F)(F)F)ccc1O (stereo not given) | 55 to 58
48 | CC(=O)OCC(CN(CC(COC(C)=O)OC(C)=O)C(=O)c1c(I)c(NC(=O)C2CCCO2)c(I)c(C(N)=O)c1I)OC(C)=O (stereo not given) | 101 to 104
49 | O=C(O)c1ccnc(F)c1 | 195 to 197
50 | CC(=O)OC1C(=O)C2(C)C(O)CC3OCC3(OC(C)=O)C2C(OC(=O)c2ccccc2)C23OC(=O)OC2C(OC(=O)C(O)C(CC(C)C)NC(=O)OC(C)(C)C)C(C)=C1C3(C)C (stereo not given) | 159
51 | CCO[Si](CCCCOc1ccc(S(=O)(=O)c2ccc(OCCCC[Si](OCC)(OCC)OCC)cc2Cc2ccc(C(F)(F)F)cc2)c(Cc2ccc(C(F)(F)F)cc2)c1)(OCC)OCC | 124 to 128
52 | CCc1nc2c(cnn2CC)c(NC2CCOCC2)c1CNC(=O)c1cccc(C(=O)NCc2ccc(C)c(-c3cccc(CN4CCN(C(=O)OC(C)(C)C)C(C)C4)c3)c2)c1 (stereo not given) | 115 to 118
53 | CNC(=O)OC(COc1ccc(C(C)(C)c2ccc(OCC(CN3C(=O)NC4(CC(C)(C)NC(C)(C)C4)C3=O)OC(=O)NC)cc2)cc1)CN1C(=O)NC2(CC(C)(C)NC(C)(C)C2)C1=O (stereo not given) | 238 to 242
54 | COc1cc(C(=O)O)ccc1Cc1cn(C(C)=O)c2ccc(NC(=O)CC3CCCC3)cc12 | 245 to 247
55 | COc1cc(OC)c(/C=C/C(c2ccc(OC)c(NCC(=O)O)c2)S(=O)(=O)C(/C=C/c2c(OC)cc(OC)cc2OC)c2ccc(OC)c(NCC(=O)O)c2)c(OC)c1 (stereo not given) | 128 to 131
56 | O=C(Nc1ccc(Br)cc1)OC1CCCNC1 (stereo not given) | 169 to 170
57 | CCC1(CC)c2cc(-c3nc4cc5sc(-c6ccc7c(c6)C(CC)(CC)c6cc(N(c8ccccc8)c8ccccc8)ccc6-7)nc5cc4s3)ccc2-c2ccc(N(c3ccccc3)c3ccccc3)cc21 | 180 to 183
58 | O=Cc1ccc(OC(F)F)c(O)c1 | 82 to 83
59 | O=C(OCCCCCCOC1CCCCO1)c1ccc(Oc2c3c(c(Oc4ccc(C(=O)OCCCCCCOC5CCCCO5)cc4)c4ccccc24)C(=O)c2ccccc2C3=O)cc1 (stereo not given) | 114 to 117
60 | CN(C)CCCN=S(=O)(c1ccccc1)c1cccs1 (stereo not given) | 125
